Laboratory results as given in US9976141B2, “Compositions and methods for inhibiting gene expression of Hif2alpha” (Arrowhead Madison Inc., priority 2015, dated 2018).
Where “and” joins values, the source holds several entries; their conditions need not be identical. Identical values can stand only once.

Tested on: human (tumor) Hif2α (EPAS1) mRNA
Assay: Hif2α knockdown in orthotopic RCC tumor bearing mice, single injection of RNAi trigger-delivery polymer conjugate, RT-qPCR (Table 7)
Assay type: in vivo
Conditions: single tail vein injection, relative to isotonic glucose
Outline: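 Female athymic nude mice carried orthotopic A498-SEAP ccRCC kidney tumours, used 5–6 weeks after implantation. They received one tail-vein injection of RGD-targeted Hif2α RNAi trigger–polymer conjugate or isotonic glucose. Tumour Hif2α mRNA was measured by TaqMan RT-qPCR normalised to CycA (ΔΔCT) and expressed relative to glucose-treated mice.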

[1] = RNAi trigger 50 μg, polymer 064 125 μg
[2] = RNAi trigger 75 μg, polymer 064 187.5 μg

Substance	Relative Expression day 4 (Hif2α mRNA in kidney tumor) [1]	Relative Expression day 4 (Hif2α mRNA in kidney tumor) [2]
AD02695 (antisense UUUCAUGAAAUCGUUACGUUG; sense ACGUAACGAUUUCAUGAAAT; Hif2alpha RNAi agent antisense strand; modified_base 2,4,6,8,10,14,16,18 /mod_base = “2′-deoxy-2′-fluoro corresponding nucleoside”; modified_base 1,3,5,7,9,11,12,13,15,17,19,20,21 /mod_base = “2′-O-methyl corresponding nucleoside”; modified_base 2,3,20,21 /mod_base = “5′-phosphorothioate corresponding nucleotide”; Hif2alpha RNAi agent sense strand; modified_base 7,9,13 /mod_base = “2′-deoxy-2′-fluoro corresponding nucleoside”; modified_base 1,2,3,4,5,6,8,10,11,12,14,15,16,17,18,19 /mod_base = “2′-O-methyl corresponding nucleoside”; modified_base 20 /mod_base = “3′-3′-linked nucleotide”; modi)	0.123	0.101 and 0.155
AD02733 (antisense UUUCAUGAAAUCGUUACGUUG; sense ACGUAACGAUUUCAUGAAAT; Hif2alpha RNAi agent antisense strand; modified_base 2,4,6,8,10 /mod_base = “2′-deoxy-2′-fluoro corresponding nucleoside”; modified_base 1,3,5,7,9,11,12,13,14,15,16,17,18,19,20,21 /mod_base = “2′-O-methyl corresponding nucleoside”; modified_base 2,3,20,21 /mod_base = “5′-phosphorothioate corresponding nucleotide”; Hif2alpha RNAi agent sense strand; modified_base 7,9 /mod_base = “2′-deoxy-2′-fluoro corresponding nucleoside”; modified_base 1,2,3,4,5,6,8,10,11,12,13,14,15,16,17,18,19 /mod_base = “2′-O-methyl corresponding nucleoside”; modified_base 20 /mod_base = “3′-3′-linked nucleotide”; modi)		0.283
AD02734 (antisense UUUCAUGAAAUCGUUACGUUG; sense ACGUAACGAUUUCAUGAAAT; Hif2alpha RNAi agent antisense strand; modified_base 2,4,6,8 /mod_base = “2′-deoxy-2′-fluoro corresponding nucleoside”; modified_base 1,3,5,7,9,10,11,12,13,14,15,16,17,18,19,20,21 /mod_base = “2′-O-methyl corresponding nucleoside”; modified_base 2,3,20,21 /mod_base = “5′-phosphorothioate corresponding nucleotide”; Hif2alpha RNAi agent sense strand; modified_base 7,9 /mod_base = “2′-deoxy-2′-fluoro corresponding nucleoside”; modified_base 1,2,3,4,5,6,8,10,11,12,13,14,15,16,17,18,19 /mod_base = “2′-O-methyl corresponding nucleoside”; modified_base 20 /mod_base = “3′-3′-linked nucleotide”; modi)		0.262
AD02735 (antisense AUUCAUGAAAUCGUUACGUUG; sense ACGUAACGAUUUCAUGAAUT; Hif2alpha RNAi agent antisense strand; modified_base 2,4,6,8,10,14,16,18 /mod_base = “2′-deoxy-2′-fluoro corresponding nucleoside”; modified_base 1,3,5,7,9,11,12,13,15,17,19,20,21 /mod_base = “2′-O-methyl corresponding nucleoside”; modified_base 2,3,20,21 /mod_base = “5′-phosphorothioate corresponding nucleotide”; Hif2alpha RNAi agent sense strand; modified_base 3,5,7,8,9,13,15,17 /mod_base = “2′-deoxy-2′-fluoro corresponding nucleoside”; modified_base 1,2,4,6,10,11,12,14,16,18,19 /mod_base = “2′-O-methyl corresponding nucleoside”; modified_base 20 /mod_base = “3′-3′-linked nucleotide”; modi)	0.144	
AD02857 (antisense UUUCAUGAAAUCGUUACGUUG; sense ACGUAACGAUUUCAUGAAAT; Hif2alpha RNAi agent antisense strand; modified_base 2,4,6,8,10,14 /mod_base = “2′-deoxy-2′-fluoro corresponding nucleoside”; modified_base 1,3,5,7,9,11,12,13,15,16,17,18,19,20,21 /mod_base = “2′-O-methyl corresponding nucleoside”; modified_base 2,3,20,21 /mod_base = “5′-phosphorothioate corresponding nucleotide”; Hif2alpha RNAi agent sense strand; modified_base 7,8,9 /mod_base = “2′-deoxy-2′-fluoro corresponding nucleoside”; modified_base 1,2,3,4,5,6,10,11,12,13,14,15,16,17,18,19 /mod_base = “2′-O-methyl corresponding nucleoside”; modified_base 20 /mod_base = “3′-3′-linked nucleotide”; modi)	0.192	
AD02858 (antisense UUUCAUGAAAUCGUUACGUUG; sense ACGUAACGAUUUCAUGAAAT; Hif2alpha RNAi agent antisense strand; modified_base 2,3,4,8,10,14 /mod_base = “2′-deoxy-2′-fluoro corresponding nucleoside”; modified_base 1,5,6,7,9,11,12,13,15,16,17,18,19,20,21 /mod_base = “2′-O-methyl corresponding nucleoside”; modified_base 2,3,20,21 /mod_base = “5′-phosphorothioate corresponding nucleotide”; Hif2alpha RNAi agent sense strand; modified_base 7,8,9 /mod_base = “2′-deoxy-2′-fluoro corresponding nucleoside”; modified_base 1,2,3,4,5,6,10,11,12,13,14,15,16,17,18,19 /mod_base = “2′-O-methyl corresponding nucleoside”; modified_base 20 /mod_base = “3′-3′-linked nucleotide”; modi)	0.192	
AD02859 (antisense UUUCAUGAAAUCGUUACGUUG; sense ACGUAACGAUUUCAUGAAAT; Hif2alpha RNAi agent antisense strand; modified_base 2,4,6,8,14 /mod_base = “2′-deoxy-2′-fluoro corresponding nucleoside”; modified_base 1,3,5,7,9,10,11,12,13,15,16,17,18,19,20,21 /mod_base = “2′-O-methyl corresponding nucleoside”; modified_base 2,3,20,21 /mod_base = “5′-phosphorothioate corresponding nucleotide”; Hif2alpha RNAi agent sense strand; modified_base 7,8,9 /mod_base = “2′-deoxy-2′-fluoro corresponding nucleoside”; modified_base 1,2,3,4,5,6,10,11,12,13,14,15,16,17,18,19 /mod_base = “2′-O-methyl corresponding nucleoside”; modified_base 20 /mod_base = “3′-3′-linked nucleotide”; modi)	0.214	
AD02860 (antisense UUUCAUGAAAUCGUUACGUUG; sense ACGUAACGAUUUCAUGAAAT; Hif2alpha RNAi agent antisense strand; modified_base 2,3,8,10,14 /mod_base = “2′-deoxy-2′-fluoro corresponding nucleoside”; modified_base 1,4,5,6,7,9,11,12,13,15,16,17,18,19,20,21 /mod_base = “2′-O-methyl corresponding nucleoside”; modified_base 2,3,20,21 /mod_base = “5′-phosphorothioate corresponding nucleotide”; Hif2alpha RNAi agent sense strand; modified_base 7,8,9 /mod_base = “2′-deoxy-2′-fluoro corresponding nucleoside”; modified_base 1,2,3,4,5,6,10,11,12,13,14,15,16,17,18,19 /mod_base = “2′-O-methyl corresponding nucleoside”; modified_base 20 /mod_base = “3′-3′-linked nucleotide”; modi)	0.165	
AD02861 (antisense UUUCAUGAAAUCGUUACGUUG; sense UAUACGUAACGAUUUCAUGAAAT; Hif2alpha RNAi agent antisense strand; modified_base 2,4,6,8,10,14 /mod_base = “2′-deoxy-2′-fluoro corresponding nucleoside”; modified_base 1,3,5,7,9,11,12,13,15,16,17,18,19,20,21 /mod_base = “2′-O-methyl corresponding nucleoside”; modified_base 2,3,20,21 /mod_base = “5′-phosphorothioate corresponding nucleotide”; Hif2alpha RNAi agent sense strand; modified_base 2 modified base = “2′-hydroxy corresponding nucleoside”; modified_base 10,11,12 /mod_base = “2′-deoxy-2′-fluoro corresponding nucleoside”; modified_base 1,3,4,5,6,7,8,9,13,14,15,16,17,18,19,20,21,22 /mod_base = “2′-O-methyl correspon)	0.103	
